Measured values taken from patent publication US20080255232A1, “Naphthyl Derivatives as Inhibitors of Beta-Amyloid Aggregation” (SIGMA-TAU INDUSTRIE FARMACEUTICHE RIUNITE S.P.A., priority 2005, published 2008).
Counter-ions that a name gives are not always drawn. Like-named read-outs stand apart in the source and are kept apart here.

Tests used:
peptide βA1-42 = molecular target: T1, peptide βA1-42 (Homo sapiens, UniProt P05067); experiment: Anti-aggregating activity on peptide βA1-42, thioflavin T fluorescence; type: biochemical; details: thioflavin T binding, aggregate + non aggregate β-A(1-42), 37° C., 24 hours; read-out: IC50 (dose reducing the aggregate formation of the 50%)
T1 construct: The β-A(1-42) was dissolved in a mixture of Acetonitrile and distilled water
Procedure: The anti-aggregating activity of the compound of formula (I) on the peptide βA1-42 is carried out via the binding of the thioflavin T according to the following procedure.
The β-A(1-42) was dissolved in a mixture of Acetonitrile and distilled water (CH3CN/H2O 1:1) to the final concentration of 1 mg/mL. The solution was divided in aliquots of 2 mL and stored at −80° C. until the use. The work solution was prepared diluting the stock solution five times with H2O (final concentration 44 μmol/L).
The β-A(1-42) was dissolved in a mixture of Acetonitrile and distilled water (CH3CN/H2O 1:1) to the final concentration of 1 mg/mL. An aliquot of 2 mL was freeze-dried to eliminate the trifluoroacetic acid residual of the peptide synthesis. The β-A(1-42) peptide was subsequently dissolved in 0.1 mL of DMSO and 5.0 mL of 2×PBS, pH 7.4. Once dissolved the β-A(1-42) was incubated to 37° C. for 8 days, at the end, after sonication, it was diluted five times with 2×PBS (final concentration 17.4 μmol/L). Waiting to be used, the aggregate β-A(1-42) was divided in aliquots and stored at −80° C.
Fluorescence Measurement with Thioflavin T
Scheme of added volumes in 96-well plates:
The assay was performed in triplicate in 96-well plates as reported above in scheme. Test compounds were added in the wells containing the aggregate β-A(1-42) then, 15 after minutes, the non-aggregate β-A(1-42) was added. The 96-well plates were incubated at 37° C. under agitation for 24 hours.
The following day, a volume of 200 μL of a solution containing 10 μmol/L thioflavin T and 50 μmol/L Na2HPO4 pH 6.5 was added to each well. Fluorescence was measured in a VICTOR 2 (WALLAC) fluorescence spectrophotometer (λex=450 nm, λem=486 nm) (Findelis M. A et al).
The data were expressed as percent of residual aggregated β-A and, when possible, the dose reducing the aggregate formation of the 50% (IC50) was estimate.
The % of aggregation was determinated by the following formula:
(βAmyloid+Test compound)−(Blank+Test compound)×100

[1] = Blood brain barrier crossing: plasma and brain concentrations after s.c. injection; type: in vivo; details: mice, s.c. 25 mg/kg
Procedure: In order to obtain basic information on the concentration achieved in brain of rodents after parental doses and their relationship with plasma concentrations, mice and rats were used. […] Compounds were determined in plasma by high-performance liquid chromatography (HPLC) after a solid liquid extraction procedure. Briefly, Oasis HLB 1 cc cartridges were pre-wetted with methanol and distilled water. Then internal standard, mouse plasma or rat plasma were added and the cartridges were washed with mater-methanoland methanol, interrupting the vacuum before the column was completely dry after each passage. The compound was removed by eluiting the cartridges with methanol and evaporated to dryness under nitrogen. The residue was dissolved in the mobile phase centrifuged and analyzed by HPLC with UV detection (224 nm).
Separation was done on a pBondapack C18 column protected by a LiChrosphere RP-8 pre-column at room temperature. The mobile phase was CH3CN:CH3OH:0.001M KH2PO4 (40:10:50 v/v) delivered at a flow rate of 1.2 mL/min.
Brain tissue was homogenized (1 g/10 ml) in CH3CN:0.001M phosphate buffer, pH 7.4 and a volume containing approximately 100 mg of tissue was centrifuged. The supernatant was processed as for plasma.
Mean brain and plasma area under the concentration-time curve (AUCt) were determined using the linear trapezoidal rule and extrapolated to infinity (AUC) by the concentration method. The elimination rate constant was calculated by least squares regression analysis of the terminal log-linear portion of the plasma and the brain drug concentration curves. The maximum concentration (Cmax) and the time (tmax) of its occurrence were read directly from the plasma and brain concentration time data.

T1 sequence (P05067 672-713): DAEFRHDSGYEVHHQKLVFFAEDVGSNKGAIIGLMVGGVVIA

Oc1ccc(Sc2ccc(O)c3ccccc23)cc1 [ST3501, 4-[(4-hydroxyphenyl)thio]-1-naphthol]
IC50 (peptide βA1-42): 7.2 µM

CSc1ccc(Nc2ccc(N(C)C)c3ccccc23)cc1 [ST3458, N,N-dimethyl-N′-[4-(methylthio)phenyl]naphthalene-1,4-diamine dihydrochloride]
IC50 (peptide βA1-42): 2.2 µM

Oc1ccc(Nc2ccc(O)c3ccccc23)cc1 [ST2177, 4-(4-hydroxyanilino)-1-naphthol]
IC50 (peptide βA1-42): 1 µM

Oc1ccc(Nc2ccccc2)c2ccccc12 [ST2176, 4-anilino-1-naphthol]
IC50 (peptide βA1-42): 5.43 µM

Oc1c(Nc2ccccc2)ccc2ccccc12 [ST2762, 1-hydroxy-N-phenylnaphthalen-2-aminiumchloride]
IC50 (peptide βA1-42): 2.4 µM

Oc1ccc2ccccc2c1Cc1c(O)ccc2ccccc12 [ST1859, 1-[(2-hydroxy-1-naphthyl)methyl]-2-naphthol, reference compound]
IC50 (peptide βA1-42): 23.5 µM

O=C(O)c1ccccc1Nc1c(O)ccc2ccccc12 [ST2757, 2-[(2-hydroxy-1-naphthyl)amino]benzoic acid]
IC50 (peptide βA1-42): 14.1 µM

COc1ccc2ccccc2c1Nc1c(OC)ccc2ccccc12 [ST2761, 2-methoxy-N-(2-methoxy-1-naphthyl)naphthalen-1-amine]
IC50 (peptide βA1-42): 5.7 µM

COc1ccc(Nc2ccc(OC)c3ccccc23)cc1C(=O)O [ST2174, 2-methoxy-5-[(4-methoxy-1-naphthyl)amino]benzoic acid]
melting point: 153 to 154 °C

COc1ccc(Nc2ccc(OC)c3ccccc23)cc1 [ST2175, 4-methoxy-N-(4-methoxyphenyl)-1-naphthalenamine]
IC50 (peptide βA1-42): 5.59 µM | Cmax, Brain ([1]; brain): 410 ng/mL or L | AUCt, Brain ([1]; brain, linear trapezoidal rule): 1643 ng/L · h or g | Kp at 0.25 h ([1]; mouse, brain, sc, 25 mg/kg, 15 min, read-out: Brain to Plasma ratio): 2.3 | Kp at 0.5 h ([1]; mouse, brain, sc, 25 mg/kg, 30 min, read-out: Brain to Plasma ratio): 3.6 | Kp at 1 h ([1]; mouse, brain, sc, 25 mg/kg, 60 min, read-out: Brain to Plasma ratio): 2.5 | Kp at 2 h ([1]; mouse, brain, sc, 25 mg/kg, 120 min, read-out: Brain to Plasma ratio): 2 | Kp at 3 h ([1]; mouse, brain, sc, 25 mg/kg, 180 min, read-out: Brain to Plasma ratio): 1.8 | Kp at 4 h ([1]; mouse, brain, sc, 25 mg/kg, 240 min, read-out: Brain to Plasma ratio): 1.3 | Kp at 6 h ([1]; mouse, brain, sc, 25 mg/kg, 360 min, read-out: Brain to Plasma ratio): 1.7 | Kp ([1]; mouse, brain, sc, 25 mg/kg, read-out: AUCt, Brain to Plasma ratio): 1.9 | Kp ([1]; mouse, brain, sc, 25 mg/kg, read-out: Cmax, Brain to Plasma ratio): 2.5 | concentration at 15 min ([1]; mouse, brain, sc, 15 min, read-out: Brain (mean ± SD)): 321 ± 130 ng/g | concentration at 30 min ([1]; mouse, brain, sc, 30 min, read-out: Brain (mean ± SD)): 398 ± 269 ng/g | concentration at 60 min ([1]; mouse, brain, sc, 60 min, read-out: Brain (mean ± SD)): 410 ± 192 ng/g | concentration at 120 min ([1]; mouse, brain, sc, 120 min, read-out: Brain (mean ± SD)): 289 ± 61 ng/g | concentration at 180 min ([1]; mouse, brain, sc, 180 min, read-out: Brain (mean ± SD)): 253 ± 77 ng/g | concentration at 240 min ([1]; mouse, brain, sc, 240 min, read-out: Brain (mean ± SD)): 220 ± 61 ng/g | concentration at 360 min ([1]; mouse, brain, sc, 360 min, read-out: Brain (mean ± SD)): 232 ± 94 ng/g | concentration at 15 min ([1]; mouse, plasma, sc, 15 min, read-out: Plasma (mean ± SD)): 0.138 µg/mL | concentration at 30 min ([1]; mouse, plasma, sc, 30 min, read-out: Plasma (mean ± SD)): 0.109 µg/mL | concentration at 60 min ([1]; mouse, plasma, sc, 60 min, read-out: Plasma (mean ± SD)): 0.164 ± 0.018 µg/mL | concentration at 120 min ([1]; mouse, plasma, sc, 120 min, read-out: Plasma (mean ± SD)): 0.142 ± 0.016 µg/mL | concentration at 180 min ([1]; mouse, plasma, sc, 180 min, read-out: Plasma (mean ± SD)): 0.139 ± 0.031 µg/mL | concentration at 240 min ([1]; mouse, plasma, sc, 240 min, read-out: Plasma (mean ± SD)): 0.159 ± 0.038 µg/mL | concentration at 360 min ([1]; mouse, plasma, sc, 360 min, read-out: Plasma (mean ± SD)): 0.13 ± 0.013 µg/mL | Tmax ([1]; mouse, sc, brain, read-out: tmax, Brain (converted)): 1 h | Cmax ([1]; mouse, sc, plasma): 0.164 µg/mL | AUC(0-t) ([1]; mouse, sc, plasma, linear trapezoidal rule, read-out: AUCt, Plasma): 0.85 µg·h/mL | Tmax ([1]; mouse, sc, plasma, read-out: tmax, Plasma (converted)): 1 h

O=C(O)c1ccc(Nc2ccc3ccccc3c2O)cc1 [ST3459, 4-[(1-hydroxy-2-naphthyl)amino]benzoic acid]
IC50 (peptide βA1-42): 2.6 µM

COc1ccccc1Nc1ccc(OC)c2ccccc12 [ST2879, N-(4-methoxy-1-naphthyl)-N-(2-methoxyphenyl)amine]
melting point: 108 to 110 °C

COc1ccc(Nc2ccc([N+](=O)[O-])c3ccccc23)cc1 [ST3451, N-(4-methoxyphenyl)-4-nitronaphthalen-1-amine]
IC50 (peptide βA1-42): 2.7 µM

COc1ccc(Nc2ccccc2)c2ccccc12 [ST2173, 4-methoxy-N-phenyl-1-naphthalenamine]
melting point: 141 to 143 °C

COC(=O)c1ccc(Nc2ccc(O)c3ccccc23)cc1 [ST2178, methyl 4-[(4-hydroxy-1-naphthyl)amino]benzoate]
IC50 (peptide βA1-42): 5.13 µM | melting point: 188 to 190 °C
